Test system: eczema
Assay: Treatment of eczema in a patient
Type: in vivo, human
Details: topical to the most gravely affected areas, before the composition
Description: A patient with eczema visited a pediatrician. […] The patient was prescribed desoximatasone for topical administration to the most gravely affected areas. […] Subsequently, the pediatrician provided the patient's parent with an amount of the exemplary composition as described in Example 3 in a suitable container-closure system, for daily administration to the patient.

Compound: C[C@@H]1C[C@H]2[C@@H]3CCC4=CC(=O)C=C[C@]4(C)[C@@]3(F)[C@@H](O)C[C@]2(C)[C@H]1C(=O)CO [desoximatasone]
- results of topical treatment of eczema: not satisfactory
